In ChEMBL document CHEMBL2021819, “CoA Adducts of 4-Oxo-4-Phenylbut-2-enoates: Inhibitors of MenB from the M. tuberculosis Menaquinone Biosynthesis Pathway” (ACS Med Chem Lett, 2011):
pIC50, pKi: −log10 of the molar value. Converted amounts (≈) assume the structure as drawn. The source made the active and inactive calls. The rule behind the calls is not given here.

Experiments:
[1] = target: T1, 1,4-dihydroxy-2-naphthoyl-CoA synthase (Mycobacterium tuberculosis, UniProt P9WNP5); assay: Inhibition of Mycobacterium tuberculosis MenB expressed in Escherichia coli BL21 (DE3) assessed as formation of DHNA-CoA from OSB-CoA by enzyme coupled-assay in presence of Escherichia coli MenE
T1 sequence (P9WNP5 whole entry): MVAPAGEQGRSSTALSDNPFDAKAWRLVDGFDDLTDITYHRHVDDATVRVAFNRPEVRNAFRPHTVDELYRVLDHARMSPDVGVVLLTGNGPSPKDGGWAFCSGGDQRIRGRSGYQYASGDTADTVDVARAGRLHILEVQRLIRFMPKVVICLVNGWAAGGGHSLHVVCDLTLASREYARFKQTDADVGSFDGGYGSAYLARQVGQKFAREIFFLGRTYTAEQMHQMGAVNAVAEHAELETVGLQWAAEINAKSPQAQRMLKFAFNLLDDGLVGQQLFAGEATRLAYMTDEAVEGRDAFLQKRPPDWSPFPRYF

[2] = Chemical stability of the compound at pH 7.4; assay type: physicochemical; conditions: buffer
[3] = target: T2, 1,4-dihydroxy-2-naphthoyl-CoA synthase (Mycobacterium tuberculosis) (UniProt P9WNP5); assay: Inhibition of Mycobacterium tuberculosis MenB expressed in Escherichia coli BL21 (DE3) assessed as formation of DHNA-CoA from OSB-CoA at 50 uM by enzyme coupled-assay in presence of Escherichia coli MenE
T2 sequence (whole entry): T1 sequence (P9WNP5 whole entry)

[4] = target: T1, 1,4-dihydroxy-2-naphthoyl-CoA synthase; assay: Inhibition of Mycobacterium tuberculosis MenB expressed in Escherichia coli BL21 (DE3) by Lineweaver-Burk plot analysis
[5] = target: T1, 1,4-dihydroxy-2-naphthoyl-CoA synthase; assay: Non-competitive inhibition of Mycobacterium tuberculosis MenB expressed in Escherichia coli BL21 (DE3) by Lineweaver-Burk plot analysis
[6] = tested on: Mycobacterium tuberculosis; assay: Antimycobacterial activity against Mycobacterium tuberculosis H37Rv after 5 to 7 days under […] condition by microplate dilution assay; assay type: functional
[7] = Half life of the compound at pH 7.4; assay type: physicochemical
[8] = target: T1, 1,4-dihydroxy-2-naphthoyl-CoA synthase; assay: Inhibition of Mycobacterium tuberculosis MenB expressed in Escherichia coli BL21 (DE3) assessed as formation of DHNA-CoA from OSB-CoA by enzyme coupled-assay in presence of Escherichia coli MenE preincubated for 1 hr
[9] = Selectivity index, ratio of cytotoxicity against african green monkey Vero cells to MIC for Mycobacterium tuberculosis H37Rv; assay type: functional
[10] = tested on: Mycobacterium tuberculosis; assay: Antibacterial activity against non-replicating Mycobacterium tuberculosis H37Rv by low oxygen recovery assay; assay type: functional

CC(C)(COP(=O)(O)OP(=O)(O)OC[C@H]1O[C@@H](n2cnc3c(N)ncnc32)[C@H](O)[C@@H]1OP(=O)(O)O)[C@@H](O)C(=O)NCCC(=O)NCCSC(CC(=O)c1ccccc1F)C(=O)O (stereo partly drawn)
pIC50 [1]: 6.69

C[C@H](SC(CC(=O)c1ccc(Cl)cc1)C(=O)O)c1ccccc1 (stereo partly drawn)
Stability [2]: Stable
inhibition [3]: inactive

CC(C)(COP(=O)(O)OP(=O)(O)OC[C@H]1O[C@@H](n2cnc3c(N)ncnc32)[C@H](O)[C@@H]1OP(=O)(O)O)[C@@H](O)C(=O)NCCC(=O)NCCSC(CC(=O)c1ccc(Cl)cc1)C(=O)O (stereo partly drawn)
pIC50 [1]: 6.33
pKi [4]: 6.46
pKi [5]: 5.79

O=C(CC1N=C(c2ccccc2)OC1=O)c1ccc(Cl)cc1 (stereo not drawn)
Stability [2]: Stable
inhibition [3]: inactive

CC(C)(COP(=O)(O)OP(=O)(O)OC[C@H]1O[C@@H](n2cnc3c(N)ncnc32)[C@H](O)[C@@H]1OP(=O)(O)O)[C@@H](O)C(=O)NCCC(=O)NCCSC(CC(=O)c1ccc(Cl)cc1Cl)C(=O)O (stereo partly drawn)
pIC50 [1]: 6.97
pKi [4]: 7.31
pKi [5]: 6.54

C[C@H](NC(CC(=O)c1ccc(F)cc1)C(=O)O)c1ccccc1 (stereo partly drawn)
pIC50 [1]: < 3.92
MIC [6]: 12.5 µg/mL (≈ 39.6 µM)
half-life [7]: 12.2 h
pIC50 [8]: 4.84

O=C(CC(NC(=O)c1ccccc1)C(=O)O)c1ccc(Cl)cc1 (stereo not drawn)
Stability [2]: Stable
inhibition [3]: inactive

COc1ccccc1C(=O)CC(N[C@@H](C)c1ccccc1)C(=O)O (stereo partly drawn)
pIC50 [1]: < 3.92
MIC [6]: 12.5 µg/mL (≈ 38.2 µM)
half-life [7]: 11.6 h
pIC50 [8]: < 3.92

C[C@H](NC(CC(=O)c1ccccc1C(F)(F)F)C(=O)O)c1ccccc1 (stereo partly drawn)
pIC50 [1]: < 3.92
MIC [6]: 25 µg/mL (≈ 68.4 µM)
half-life [7]: 0.2 h
pIC50 [8]: 5.49

CC(C)(COP(=O)(O)OP(=O)(O)OC[C@H]1O[C@@H](n2cnc3c(N)ncnc32)[C@H](O)[C@@H]1OP(=O)(O)O)[C@@H](O)C(=O)NCCC(=O)NCCSCCC(=O)c1ccc(Cl)cc1Cl
pIC50 [1]: < 3.40

O=C(O)/C=C/C(=O)c1ccc(Cl)cc1
MIC [6]: 25 µg/mL (≈ 119 µM)

C[C@H](NC(CC(O)c1ccc(Cl)cc1)C(=O)O)c1ccccc1 (stereo partly drawn)
Stability [2]: Stable
inhibition [3]: inactive

COc1ccccc1C(=O)CC(SCCNC(=O)CCNC(=O)[C@H](O)C(C)(C)COP(=O)(O)OP(=O)(O)OC[C@H]1O[C@@H](n2cnc3c(N)ncnc32)[C@H](O)[C@@H]1OP(=O)(O)O)C(=O)O (stereo partly drawn)
pIC50 [1]: 4.92

CC(C)(COP(=O)(O)OP(=O)(O)OC[C@H]1O[C@@H](n2cnc3c(N)ncnc32)[C@H](O)[C@@H]1OP(=O)(O)O)[C@@H](O)C(=O)NCCC(=O)NCCSC(=O)CCC(=O)c1ccc(Cl)cc1Cl
pIC50 [1]: 5.66

CC(C)(COP(=O)(O)OP(=O)(O)OC[C@H]1O[C@@H](n2cnc3c(N)ncnc32)[C@H](O)[C@@H]1OP(=O)(O)O)[C@@H](O)C(=O)NCCC(=O)NCCSC(CC(=O)c1ccccc1[N+](=O)[O-])C(=O)O (stereo partly drawn)
pIC50 [1]: 6.81

CC(C(=O)c1ccc(Cl)cc1)C(N[C@@H](C)c1ccccc1)C(=O)O (stereo partly drawn)
Stability [2]: Stable
inhibition [3]: Active

CC(C)(COP(=O)(O)OP(=O)(O)OC[C@H]1O[C@@H](n2cnc3c(N)ncnc32)[C@H](O)[C@@H]1OP(=O)(O)O)[C@@H](O)C(=O)NCCC(=O)NCCSC(CC(=O)c1ccccc1Br)C(=O)O (stereo partly drawn)
pIC50 [1]: 6.87

[2H]C([2H])(C(=O)c1ccccc1Cl)C(N[C@@H](C)c1ccccc1)C(=O)O (stereo partly drawn)
Stability [2]: Stable

C[C@H](NC(C(=O)O)C(F)(F)C(=O)c1ccc(Cl)cc1)c1ccccc1 (stereo partly drawn)
Stability [2]: Stable
inhibition [3]: inactive

COc1ccc(C(=O)CC(SCCNC(=O)CCNC(=O)[C@H](O)C(C)(C)COP(=O)(O)OP(=O)(O)OC[C@H]2O[C@@H](n3cnc4c(N)ncnc43)[C@H](O)[C@@H]2OP(=O)(O)O)C(=O)O)cc1 (stereo partly drawn)
pIC50 [1]: 4.47

COC(=O)/C=C/C(=O)c1ccc(F)cc1
Selectivity Index [9]: >20
MIC [6]: 0.64 µg/mL (≈ 3.07 µM)

C[C@H](NC(CC(=O)c1ccccc1Cl)C(=O)O)c1ccccc1 (stereo partly drawn)
pIC50 [1]: < 3.92
MIC [6]: 50 µg/mL (≈ 151 µM)
half-life [7]: 0.4 h
pIC50 [8]: 5.08

CC(C)(COP(=O)(O)OP(=O)(O)OC[C@H]1O[C@@H](n2cnc3c(N)ncnc32)[C@H](O)[C@@H]1OP(=O)(O)O)[C@@H](O)C(=O)NCCC(=O)NCCSC(CC(=O)c1ccccc1I)C(=O)O (stereo partly drawn)
pIC50 [1]: 6.38

C[C@H](NC(C(=O)O)C(C)(C)C(=O)c1ccccc1)c1ccccc1 (stereo partly drawn)
Stability [2]: Stable
inhibition [3]: inactive

C[C@H](NC(CC(=O)c1ccc(Cl)cc1)C(=O)O)c1ccccc1 (stereo partly drawn)
pIC50 [1]: < 3.92
MIC [6]: 50 µg/mL (≈ 151 µM)
half-life [7]: 6.8 h
pIC50 [8]: 4.93

CC(C)(COP(=O)(O)OP(=O)(O)OC[C@H]1O[C@@H](n2cnc3c(N)ncnc32)[C@H](O)[C@@H]1OP(=O)(O)O)[C@@H](O)C(=O)NCCC(=O)NCCSC(CC(=O)c1cccc(Cl)c1)C(=O)O (stereo partly drawn)
pIC50 [1]: 4.85

C[C@H](NC(CC(=O)c1ccccc1)C(=O)O)c1ccccc1 (stereo partly drawn)
pIC50 [1]: < 3.92
MIC [6]: 6.25 µg/mL (≈ 21 µM)
half-life [7]: 11.6 h
pIC50 [8]: 4.28

CC(C)(COP(=O)(O)OP(=O)(O)OC[C@H]1O[C@@H](n2cnc3c(N)ncnc32)[C@H](O)[C@@H]1OP(=O)(O)O)[C@@H](O)C(=O)NCCC(=O)NCCSC(CC(=O)c1ccccc1Cl)C(=O)O (stereo partly drawn)
pIC50 [1]: 6.99
pKi [4]: 7.01
pKi [5]: 6.10

COC(=O)/C=C/C(=O)c1ccc(Cl)cc1
MIC [10]: 1.5 µg/mL (≈ 6.68 µM)
Selectivity Index [9]: >20
MIC [6]: 0.64 µg/mL (≈ 2.85 µM)
